Measured values: patent publication US6528655B1, “Aromatic derivatives with HIV integrase inhibitory properties” (Pharmacor, Inc., priority 2000, dated 2003)
pIC50: −log10 of the molar value. Read-outs that look alike come from different tables or passages of the source.

Target: HIV-1 integrase (Human immunodeficiency virus type 1 group M subtype B, UniProt P04585)
Assay: HIV-1 integrase inhibition assay (radiolabeled duplex substrate corresponding to the U5 end of the HIV LTR)
Assay type: biochemical
Method: For the purpose of Table 1 to 4, the HIV-1 integrase inhibition assay was carried out following a known procedure (Burke, Jr. T. R. et al., J. Med. Chem. 38, 4171-4178 (1995)). A suitable radiolabeled duplex substrate corresponding to the U5 end of the HIV LTR was used.
For the purposes of Table 1 to 4 the HIV-1 integrase inhibition assay was based on a known procedure (Hazuda, D. J. et al., Nucleic Acids Res. 22 1121-1122 (1994)).

[1] = Table 1, compounds of formula II′, read-out: IC50

| Compound | pIC50 | further results |
| --- | --- | --- |
| Cc1ccc(C(c2ccccc2)(c2ccccc2)n2cnc(C[C@H](NC(=O)CCc3ccc(O)c(O)c3)C(=O)NCCc3ccc(O)c(O)c3)c2)cc1 [Example 28, N-(Nα-Dihydrocaffeoyl-Nτ-methyltrityl-L-histidinyl)dopamine] | – | pIC50 [1]: 6.15 |
| O=C(/C=C/c1cccc([N+](=O)[O-])c1)N[C@@H](Cc1cn(C(c2ccccc2)(c2ccccc2)c2ccccc2)cn1)C(=O)NCCc1ccc(O)c(O)c1 [Example 35, N-(Nα-(3-Nitrocinnamoyl)-Nτ-trityl-L-histidinyl)dopamine] | 5.92 | – |
| O=C(N[C@@H](Cc1cn(-c2ccc([N+](=O)[O-])cc2[N+](=O)[O-])cn1)C(=O)NCc1ccc(O)c(O)c1)c1ccc(O)c(O)c1 [Example 23, N-[Nα-(3,4-Dihydroxybenzoyl)-Nτ-(2,4-dinitrophenyl)-L-histidinyl]-3,4-dihydroxybenzylamine] | 6.58 | – |
| Nc1ccc(C(=O)N[C@@H](Cc2ccc(O)c(O)c2)C(=O)O)cc1O [Example 20, Nα-(4-Amino-3-hydroxybenzoyl)-L-3,4-dihydroxyphenylalanine] | < 5.30 | – |
| O=C(N[C@@H](Cc1cn(C(c2ccccc2)(c2ccccc2)c2ccccc2)cn1)C(=O)NCCc1ccc(O)c(O)c1)c1cc(O)c(O)c(O)c1 [Example 39, N-[Nα-(3,4,5-Trihydroxybenzoyl)-Nτ-trityl-L-histidinyl]dopamine] | 6.65 | – |
| CC(C)(C)OC[C@H](NC(=O)c1cc2ccccc2n1Cc1ccc(F)cc1)C(=O)NCCc1ccc(O)c(O)c1 [Example 95, N-[Nα-(N′-(4-Fluorobenzyl)indole-2-carbonyl)-O-tert-butyl-L-seryl]dopamine] | 5.15 | – |
| CC(C)(C)OC(=O)N[C@@H](Cc1cn(-c2ccc([N+](=O)[O-])cc2[N+](=O)[O-])cn1)C(=O)NCc1ccc(O)c(O)c1 [Example 24, N-[Nα-tert-Butoxycarbonyl-Nτ-(2,4-dinitrophenyl)-L-histidinyl]-3,4-dihydroxybenzylamine] | < 5.30 | – |
| CC(C)(C)OC(=O)CC[C@H](NC(=O)c1cc(F)ccc1O)C(=O)NCCc1cccs1 [Example 107, N-[Nα-(5-Fluoro-2-hydroxybenzoyl)-Oδ-tert-butyl-L-glutamyl]-2-(2′-thiophenyl)ethylamine] | < 5.00 | – |
| O=C(N[C@@H](Cc1ccc(O)cc1)C(=O)NCCc1ccc(O)c(O)c1)c1cc2cccc(O)c2cc1O [Example 57, N-[Nα-(3,5-Dihydroxynaphthyl-2-carbonyl)-L-tyrosyl]dopamine] | 5.96 | – |
| O=C(O)CC[C@H](NC(=O)c1cccn1Cc1ccc(F)cc1)C(=O)NCCc1cccs1 [Example 103, N-[Nα-(N′-(4-Fluorobenzyl)pyrrole-2-carbonyl)-L-glutamyl]-2-(2′-thiophenyl)ethylamine] | < 5.00 | – |
| CC(C)(C)OC[C@H](NC(=O)c1ccc(OCc2ccc(F)cc2)c(OCc2ccc(F)cc2)c1)C(=O)NCCc1ccc(O)c(O)c1 [Example 97, N-[Nα-(3,4-di-(4-Fluorobenzyloxy)benzoyl)-O-tert-butyl-L-seryl]dopamine] | 5.54 | – |
| O=C(C[C@H](NC(=O)c1ccc(O)c(O)c1)C(=O)NCCc1ccc(O)c(O)c1)OC1CCCCC1 [Example 1, N-[Nα-(3,4-Dihydroxybenzoyl)-Oγ-cyclohexyl-L-aspartyl]dopamine] | 4.47 | – |
| O=C(/C=C/c1ccc(O)c(O)c1)NCCCC[C@H](NC(=O)/C=C/c1ccc(O)c(O)c1)C(=O)OCc1ccccc1 [Example 6, Nα,Nε-Dicaffeoyl-L-lysine Benzyl Ester] | 5.57 | – |
| NC(=O)C[C@H](NC(=O)c1cc(O)c2cccc(O)c2n1)C(=O)NCCc1ccc(O)c(O)c1 [Example 67, N-[Nα-(4,8-Dihydroxyquinoline-2-carbonyl)-L-asparagyl]dopamine] | < 5.30 | – |
| CC(C)(C)OC(=O)CC[C@H](NC(=O)c1cc2ccccc2n1Cc1ccc(F)cc1)C(=O)NCCc1cccs1 [Example 102, N-[Nα-(N′-(4-Fluorobenzyl)indole-2-carbonyl)-Oδ-tert-butyl-L-glutamyl]-2-(2′-thiophenyl)ethylamine] | < 5.00 | – |
| O=C(N[C@@H](Cc1ccc(O)c(O)c1)C(=O)NCCc1ccc(O)c(O)c1)c1cc2cccc(O)c2cc1O [Example 60, N-[Nα-(3,5-Dihydroxynaphthyl-2-carbonyl)-L-3,4-dihydroxyphenylalanyl]dopamine] | 5.74 | – |
| Cc1ccc(C(c2ccccc2)(c2ccccc2)n2cnc(C[C@H](NC(=O)c3cc(O)c4cccc(O)c4n3)C(=O)NCCc3ccc(O)c(O)c3)c2)cc1 [Example 71, N-[Nα-(4,8-Dihydroxyquinoline-2-carbonyl)-Nτ-methyltrityl-L-histidinyl]dopamine] | – | pIC50 (Table 2, compounds of formula III′, read-out: IC50): 6.22 |
| O=C(N[C@@H](Cc1ccc(O)cc1)C(=O)NCCc1ccc(O)c(O)c1)c1cnc(O)nc1O [Example 4, N-[Nα-(2,4-Dihydroxypyrimidinyl-5-carbonyl)-L-tyrosyl]dopamine] | < 5.00 | – |

| Compound | pIC50 | further results |
| --- | --- | --- |
| O=C(O)CC[C@H](NC(=O)c1cc(F)ccc1O)C(=O)NCCc1cccs1 [Example 108, N-[Nα-(5-Fluoro-2-hydroxybenzoyl)-L-glutamyl]-2-(2′-thiophenyl)ethylamine] | < 5.00 | – |
| COc1ccc(OC)c(C=CC(=O)N[C@@H](CO)C(=O)NCCc2ccc(O)c(O)c2)c1 [Example 46, N-[Nα-(2,5-Dimethoxycinnamoyl)-L-seryl]dopamine] | < 5.00 | – |
| O=C(CC[C@H](NC(=O)c1cc(O)c2cccc(O)c2n1)C(=O)NNC(=O)c1ccccc1O)NNC(=O)c1ccccc1O [Example 78, N1-[Nα-(4,8-Dihydroxyquinoline-2-carbonyl)-L-glutamyl]-N2/Nδ-di-(2-hydroxybenzoyl)-dihydrazine] | – | pIC50 (Table 3, compounds of formula IV′, read-out: IC50): < 5.01 |
| O=C(/C=C/c1ccc(O)c(O)c1)N[C@@H](CSC(c1ccccc1)(c1ccccc1)c1ccccc1)C(=O)NCCc1ccc(O)c(O)c1 [Example 12, N-(Nα-Caffeoyl-S-trityl-L-cysteinyl)dopamine] | 6.33 | – |
| O=C(C[C@H](NC(=O)c1cc(O)c2cccc(O)c2n1)C(=O)NCCc1ccc(O)c(O)c1)NC(c1ccccc1)(c1ccccc1)c1ccccc1 [Example 64, N-[Nα-(4,8-Dihydroxyquinoline-2-carbonyl)-Nγ-trityl-L-asparagyl]dopamine] | 5.15 | – |
| COc1ccc(OC)c(NC(=O)[C@H](CCC(=O)NC(c2ccccc2)(c2ccccc2)c2ccccc2)NC(=O)c2ccc[nH]2)c1 [Example 88, N-[Nα-(Pyrrole-2-carbonyl)-Nδ-trityl-L-glutaminyl]-2,5-dimethoxyaniline] | < 5.00 | – |
| Cc1ccc(C(c2ccccc2)(c2ccccc2)n2cnc(C[C@H](NC(=O)c3ccc(O)c([N+](=O)[O-])c3)C(=O)NCCc3ccc(O)c(O)c3)c2)cc1 [Example 36, N-[Nα-(4-Hydroxy-3-nitrobenzoyl)-Nτ-methyltrityl-L-histidinyl]dopamine] | – | pIC50 [1]: 6.24 |
| CC(C)(C)OC(=O)NCCC[C@H](NC(=O)c1cc(O)c(O)c(O)c1)C(=O)NCCc1ccc(O)c(O)c1 [Example 54, N-[Nα-(3,4,5-Trihydrozybenzoyl)-Nδ-butoxycarbonyl-L-ornithyl]dopamine] | 6.43 | – |
| O=C(C=Cc1ccc([N+](=O)[O-])cc1)NC(Cc1cn(C(c2ccccc2)(c2ccccc2)c2ccccc2)cn1)C(=O)NCCc1ccc(O)c(O)c1 [Example 41, N-(Nα-(4-Nitrocinnamoyl)-Nτ-trityl-L-histidinyl)dopamine] | 5.94 | – |
| O=C(/C=C/c1ccc(O)c(O)c1)N[C@@H](Cc1ccc(O)cc1)C(=O)NNC(=O)c1ccccc1O [Example 74, N1-(Nα-Caffeoyl-L-tyrosyl)-N2-(2-hydroxybenzoyl)-hydrazine] | 6.09 | – |
| O=C(C=Cc1ccc(O)c(O)c1)NC(Cc1cn(-c2ccc([N+](=O)[O-])cc2[N+](=O)[O-])cn1)C(=O)NCCc1ccc(O)c(O)c1 [Example 19, N-[Nα-Caffeoyl-Nτ-(2,4-dinitrophenyl)-L-histidinyl]dopamine] | 6.25 | – |
| O=C(C=Cc1ccsc1)NC(Cc1cn(-c2ccc([N+](=O)[O-])cc2[N+](=O)[O-])cn1)C(=O)NNC(=O)c1ccccc1O [Example 81, N1-[Nα-(3-(3′-thiophenyl)acryloyl)-Nτ-(2,4-dinitrophenyl)-L-histidinyl]-N2-(2-hydroxybenzoyl)-hydrazine] | < 5.00 | – |
| N-[Nα-(N′-(4-Fluorobenzyl)indole-2-carbonyl)-Oδ-tert-butyl-L-glutamyl]benzylamine [Example 89] | – | pIC50 (Table 4, compounds of formula I′, read-out: IC50): < 5.00 |
| O=C(O)CC[C@H](NC(=O)c1cc2ccccc2n1Cc1ccc(F)cc1)C(=O)NCCc1cccs1 [Example 104, N-[Nα-(N′-(4-Fluorobenzyl)indole-2-carbonyl)-L-glutamyl]-2-(2′-thiophenyl)ethylamine] | < 5.00 | – |
| Cc1ccc(C(NC(=O)CC[C@H](NC(=O)/C=C/c2cccc([N+](=O)[O-])c2)C(=O)NCCc2ccc(O)c(O)c2)(c2ccccc2)c2ccccc2)cc1 [Example 50, N-[Nα-(3-Nitrocinnamoyl)-Nδ-methyltrityl-L-glutaminyl]dopamine] | 5.40 | – |
| Cc1ccc(C(NC(=O)CC[C@H](NC(=O)/C=C/c2ccc(O)c(O)c2)C(=O)NCc2ccc(O)c(O)c2)(c2ccccc2)c2ccccc2)cc1 [Example 33, N-(Nα-Caffeoyl-Nδ-methyltrityl-L-glutaminyl)-3,4-dihydroxybenzylamine] | 6.81 | – |
| Cc1ccc(C(NC(=O)CC[C@H](NC(=O)c2ccc(O)c([N+](=O)[O-])c2)C(=O)NCc2ccc(O)c(O)c2)(c2ccccc2)c2ccccc2)cc1 [Example 26, N-[Nα-(4-Hydroxy-3-nitrobenzoyl)-Nδ-methyltrityl-L-glutaminyl]-3,4-dihydroxybenzylamine] | 6.27 | – |
| O=C(N[C@@H](Cc1ccc(O)cc1)C(=O)NCc1ccc(O)c(O)c1)c1cc(O)c2cccc(O)c2n1 [Example 68, N-[Nα-(4,8-Dihydroxyquinoline-2-carbonyl)-L-tyrosyl]-3,4-dihydroxybenzylamine] | < 5.30 | – |
